Legend:
[1] = In vitro half-life in liver microsomes, rat; format: in vitro ADME; conditions: microsomes, up to one hour, longer half-lives are extrapolated, n=1
Procedure: (§1) In vitro metabolism was assessed using liver microsomes for all species. Compounds were incubated at 1 μM with liver microsomes for up to one hour. Reported half-lives greater than the total incubation time are extrapolated values. Extracts were assayed for disappearance of parent compound by LC-MS/MS detection.
(§2) Data represents one independent experiment conducted.

[2] = In vitro half-life in liver microsomes, dog; format: in vitro ADME; conditions: microsomes, up to one hour, longer half-lives are extrapolated, n=1
Procedure: as §1, §2

[3] = In vitro half-life in liver microsomes, monkey; format: in vitro ADME; conditions: microsomes, up to one hour, n=1
Procedure: as §1, §2

[4] = In vitro half-life in liver microsomes, human; format: in vitro ADME; conditions: microsomes, up to one hour, longer half-lives are extrapolated, n=1
Procedure: as §1, §2

CYP3A4 = CYP3A4 (Homo sapiens, UniProt P08684); test: Recombinant CYP450 inhibition, fluorometric, CYP3A4; format: in vitro ADME; design: from tissue; host or cells: pooled human liver microsomes
Procedure: (§3) Compounds were assayed using recombinant human microsomal proteins with fluorometric substrates. Signal was measured with a Fusion plate reader utilizing the appropriate excitation and emission wavelength set to detect the specific metabolite: […]

[5] = test system: CYP3A4 (activation of PXR in DPX2 cells); test: CYP3A4 induction screen in DPX2 cells; format: cell-based, human; conditions: extent compared with rifampicine, mifepristone, androstanol
From the text: The potential for in vitro induction of CYP3A4 was screened in DPX2 cells. The DPX2 cell line is a derivative of a human hepatocellular carcinoma cell line (HepG2) transformed with the human pregnane x receptor (PXR) and a reporter gene vector containing the enhancer region of CYP3A4. The potential for in vitro induction of CYP1A2 was screened in CYP1A2-DRE cells. The CYP1A2-DRE cell line is a stably transformed HepG2 cells with dioxin response elements (DRE) and reporter gene containing CYP1A2 promoter elements. The extent of CYP3A4 induction was determined by comparing the activation of PXR obtained with test article to that obtained with rifampicine (potent inducer), mifepristone (moderate inducer) and androstanol (weak inducer). The extent of CYP1A2 induction was determined by comparing the activation of the aryl hydrocarbon receptor (AhR) obtained with test article to that obtained with TCDD (potent inducer), omeprazole (moderate inducer), and 2-acetylaminofluorene (weak inducer).

CYP2C9 = CYP2C9 (Homo sapiens, UniProt P11712); test: Recombinant CYP450 inhibition, Luciferin-H, CYP2C9; format: in vitro ADME; design: from tissue; host or cells: pooled human liver microsomes; conditions: highest concentration tested 10 μM
Procedure: CYP2C9 inhibition was performed by incubating a luminogenic CYP450 substrate Luciferin-H with CYP2C9 and an NADPH regeneration system. Luminescence measured using a Fusion plate reader.

CYP2D6 = CYP2D6 (Homo sapiens, UniProt P10635); test: Recombinant CYP450 inhibition, fluorometric, CYP2D6; format: in vitro ADME; design: from tissue; host or cells: pooled human liver microsomes; conditions: recombinant enzyme, read-out: percentage of inhibition at the highest concentration tested, CYP2D6
Procedure: as §3

CYP3A4, sequence (P08684 whole entry, the tested form may be a part): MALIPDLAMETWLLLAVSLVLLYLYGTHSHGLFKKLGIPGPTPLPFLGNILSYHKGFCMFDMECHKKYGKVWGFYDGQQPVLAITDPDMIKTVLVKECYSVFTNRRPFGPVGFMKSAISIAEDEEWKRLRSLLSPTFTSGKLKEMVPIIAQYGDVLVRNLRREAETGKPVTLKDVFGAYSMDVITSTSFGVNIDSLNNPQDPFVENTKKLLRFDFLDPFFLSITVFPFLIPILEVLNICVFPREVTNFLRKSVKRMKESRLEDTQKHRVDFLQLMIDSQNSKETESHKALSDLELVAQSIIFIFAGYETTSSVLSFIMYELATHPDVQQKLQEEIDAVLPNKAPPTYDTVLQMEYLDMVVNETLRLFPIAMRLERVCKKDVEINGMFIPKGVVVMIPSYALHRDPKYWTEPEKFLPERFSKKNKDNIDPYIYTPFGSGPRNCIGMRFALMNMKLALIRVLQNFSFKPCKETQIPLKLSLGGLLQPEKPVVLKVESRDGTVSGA
CYP2C9, sequence (P11712 whole entry, the tested form may be a part): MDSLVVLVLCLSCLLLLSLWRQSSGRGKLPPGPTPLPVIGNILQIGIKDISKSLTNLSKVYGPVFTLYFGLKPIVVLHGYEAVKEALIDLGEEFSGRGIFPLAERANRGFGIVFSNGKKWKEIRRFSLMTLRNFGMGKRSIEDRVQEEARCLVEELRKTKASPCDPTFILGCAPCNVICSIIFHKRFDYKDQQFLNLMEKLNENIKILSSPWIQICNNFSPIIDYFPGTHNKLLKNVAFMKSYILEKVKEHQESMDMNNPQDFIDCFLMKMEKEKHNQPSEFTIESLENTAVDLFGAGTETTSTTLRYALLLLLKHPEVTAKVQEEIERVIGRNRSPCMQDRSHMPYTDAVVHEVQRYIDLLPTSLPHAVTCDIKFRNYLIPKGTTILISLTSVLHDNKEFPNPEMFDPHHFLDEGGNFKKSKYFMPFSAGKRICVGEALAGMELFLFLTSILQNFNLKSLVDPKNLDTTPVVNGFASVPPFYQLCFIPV
CYP2D6, sequence (P10635 whole entry): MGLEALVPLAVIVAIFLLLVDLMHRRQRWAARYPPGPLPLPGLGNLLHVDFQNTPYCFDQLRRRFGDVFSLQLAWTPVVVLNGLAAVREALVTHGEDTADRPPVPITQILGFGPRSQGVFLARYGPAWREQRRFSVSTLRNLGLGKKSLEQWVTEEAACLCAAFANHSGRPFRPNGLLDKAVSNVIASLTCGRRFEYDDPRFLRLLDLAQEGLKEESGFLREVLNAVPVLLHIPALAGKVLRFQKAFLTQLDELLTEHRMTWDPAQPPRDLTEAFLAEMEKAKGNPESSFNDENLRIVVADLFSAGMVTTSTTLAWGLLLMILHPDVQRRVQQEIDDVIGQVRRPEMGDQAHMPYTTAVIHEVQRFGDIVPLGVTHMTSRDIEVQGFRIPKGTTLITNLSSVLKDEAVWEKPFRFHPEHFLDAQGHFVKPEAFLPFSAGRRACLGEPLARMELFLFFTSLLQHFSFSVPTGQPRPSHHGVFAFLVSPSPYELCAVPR

SMILES	half-life at 1 μM [1] [min]	half-life at 1 μM [2] [min]	half-life at 1 μM [3] [min]	half-life at 1 μM [4] [min]	IC50 (CYP3A4) [nM]	Induction, DPX2 (CYP3A4) [5]	IC50 (CYP2C9) [µM]	inhibition at 10 µM (CYP2D6) [%]
COP(=O)(c1cc(C)cc(/C=C/C#N)c1)c1c(C(N)=O)[nH]c2ccc(Cl)c(F)c12 (racemic) [rac (I + II), 5-chloro-4-fluoro-3-[methyl 3-((E)-2-cyanovinyl)-5-methylphenyl]phosphinoyl-1H-indole-2-carboxamide]	146	287	18.4	115	1610	–	–	–
COP(=O)(c1cc(C)cc(/C=C/C#N)c1)c1c(C(N)=O)[nH]c2ccc(Cl)cc12 (racemic) [rac (III + IV), 5-chloro-3-[methyl 3-((E)-2-cyanovinyl)-5-methylphenyl]phosphinoyl-1H-indole-2-carboxamide]	105	257	16.3	91.2	2270	Moderate (n = 1)	5.99	16 to 23

Reference: patent publication US8486991B2, “Enantiomerically pure phosphoindoles as HIV inhibitors” (Idenix Pharmaceuticals, Inc., priority 2006, dated 2013)
